We go through 2 compounds from PMC6701825, “Antiproliferative and Antimigratory Effects of a Novel YAP–TEAD Interaction Inhibitor Identified Using in Silico Molecular Docking” (Journal of Medicinal Chemistry, 2019).

Molecules are shown by their SMILES.

The test system of one experiment is HuVSMC. The experiment in a line: Real-time IncuCyte scratch wound migration assay in HuVSMC. The following applies: HuVSMC, 0.25, 0.5, 2, and 10 μM. The class given is cell-based, human. The protocol:
Figure 9 Compound 3.1 inhibits TEAD target gene expression, cell proliferation, and cell migration in RaVSMCs. RaVSMCs stably transduced with TEAD-NLUC (A) or transiently transfected with CCN1-LUC or CTGF-LUC were treated with the indicated concentrations of compound 3.1 for 6 hr. Cell conditioned media (A) or cell lysates (B−C) were assayed for nanoluciferase or fire-fly luciferase activity, respectively. VSMC were treated with 60 μM compound 3.1 for 6 h (n = 3). Total RNA was analyzed for mRNA levels of TEAD-target genes (D) or constitutive housekeeping genes (E) by qRT-PCR. VSMC were treated with indicated concentrations of compound 3.1 for 16 hr (n = 4). Total cell lysates were analyzed for CCN1 protein expression by Western blotting (F). RaVSMCs (G) or HuVSMC (H) were treated with indicated concentrations of compound 3.1 for 18 h followed by labeling in 10 μM EdU for a further 6 h (n = 4). RaVSMCs (I) or HuVSMC (J) were treated with indicated concentrations of compound 3.1 and cell migration quantified using IncuCyte real time migration assay (n = 4).
Cell proliferation was measured using the Click-iT EdU 488 assay (Sigma-Aldrich). […] Fluorescent images of at least three fields of view per well were counted using ImageJ software. […] Relative wound confluence was calculated using the Cell Migration Image analysis module of the IncuCyte ZOOM software.

A further experiment relates to RaVSMCs. The experiment in a line: EdU proliferation assay in RaVSMCs. The following applies: 18 h then 6 h 10 μM EdU. The class given is cell-based, rat. The protocol: Cell proliferation was measured using the Click-iT EdU 488 assay (Sigma-Aldrich). Briefly, the cells were treated with indicated concentrations of compounds for 24 h with the last 4 h being in the presence of 10 μM EdU. The cells were fixed in 4% formaldehyde and stained for EdU incorporation, following the kit’s standard protocol. The cells were counterstained with Hoechst 33342 nucleic acid for 20 min. Fluorescent images of at least three fields of view per well were counted using ImageJ software. Real-time analysis of cell migration was performed using an IncuCyte ZOOM live cell imaging system (Essen BioScience) according to the manufacturer’s instructions. Briefly, the cells were seeded (1.2 × 10^4 cells/well for HeLa cells, 1.5 × 10^4 cells/well for RaVSMCs, and 1 × 10^4 cells/well) into ImageLock 96-well plates. After 36 h, the cells were pretreated overnight with indicated concentrations of compounds. The wells were scratched using a WoundMaker tool, and the media were replaced containing test compounds. Phase contrast images of cell migration into the wounded area were acquired hourly for 24 h. Relative wound confluence was calculated using the Cell Migration Image analysis module of the IncuCyte ZOOM software.

On to `Cc1ccc2c(c1)c1c3n2CCNC3CCC1` (centres unmarked) [CPD3.1], for which the “cell migration (scratch wound)” value in the experiment on HuVSMC is on record as “inhibited in a dose-dependent manner”.
Turning to `Cc1ccc2c(c1)c1c3n2CCN(CC(O)CN2CCN(C(=O)c4ccco4)CC2)C3CCC1` (centres unmarked) [CPD3], the “cell proliferation (EdU incorporation)” value in the experiment with RaVSMCs is “dose-dependently inhibited cell proliferation”.
